Assay results taken from patent US20200390101A1, “MICROBICIDAL COMPOSITION” (DOW GLOBAL TECHNOLOGIES LLC, priority 2017, published 2020).

System: anaerobic sulfate-reducing bacteria
Experiment: Sulfide control efficacy against anaerobic sulfate-reducing bacteria (colorimetric sulfide measurement after 2 days at 35° C.)
Assay type: cell-based
Conditions: for Sulfide (ppm): sulfide level at the listed THPS/nitrate concentrations after 2 days at 35° C.
Method: Inside an anaerobic chamber (Bactron anaerobic chamber), a deoxygenated sterile salt solution (3.12 g of NaCl, 0.13 g of NaHCO3, 0.17 g of Na2SO4, 47.70 mg of KC1, 72.00 mg of CaCl2, 54.49 mg of MgSO4, 43.92 mg of Na2CO3 in 1 L water and then enriched with 5% of ATCC 1249 Modified Baar's Medium) was inoculated with a sulfate-reducing bacteria which has a high similarity in 16S rRNA gene sequence with Desulfovibrio alaskensis and Desulfovibrio vietnamensis, at a final bacterial concentrations of 10^7 CFU/mL. […] After the mixtures were incubated at 35° C. for 2 days, sulfide level in all treatments including non THPS and or nitrate controls were measured using a colorimetric method described by D. Andrew et. al in “Standard Methods for the Examination of Water and Wastewater 4500-S2-”, with a scaled down sample size (250 μl) and reagents (scaled down accordingly) to allow the analysis to be done in 96-well micro-titer plates. Final results were read using a 96-well plate reader (TECAN Sunrise) at wavelength of 580 nm.
SI is calculated as follows:
Ca/CA+Cb/CB=Synergy Index (“SI”)

Row | Compound | Active ppm concentration required to control sulfide below 10 ppm, Nitrate (nitrate component (sodium nitrate), 10^7 CFU/mL, 35° C., 2 days, anaerobic) | Sulfide (ppm) | Active ppm concentration required to control sulfide below 10 ppm, THPS (THPS component, 10^7 CFU/mL, 35° C., 2 days, anaerobic)
1 | O=[N+]([O-])[O-].[Na+] [THPS:Nitrate 0:1, sodium nitrate] | >800 ppm | 74.26 ppm | 
2 | tetrakis(hydroxymethyl) phosphonium sulfate [THPS:Nitrate 1:0] |  | 2.48 ppm | 12.50 ppm
